The results in this text go back to patent US20220127263A1, “Novel Compounds for the Treatment, Alleviation or Prevention of Disorders Associated with Tau Aggregates” (AC Immune SA, priority 2019, published 2022).

Where two headings read alike, the source gives them in different places.

Data set [1] in a line: CSF/Plasma ratio determination, in-vivo pharmacokinetics mouse p.o. Set-up: species or system CD-1 male mice. The note with it: for CSF/plasma AUC ratio / AUC(0-t): male, CD-1, po; for AUC(0-t): plasma, read-out: Plasma AUC0-last. The protocol: CSF/Plasma Ratio Determination
Test compounds were administered to CD-1 male mice as a single oral dose of 10 or 20 mg/kg of a homogenous suspension (10 mL/kg, 1 or 2 mg/mL in 0.5% CMC (w/v) in water) by gavage using a plastic syringe fitted with a metal gavage tube. Terminal blood, brain and CSF samples were collected from three animals at several time points, typically at 2, 4, 8 and 24 h post-dose.
Blood samples were transferred into 1.5-mL plastic tubes containing K2-EDTA (0.5M, 3 uL) as an anti-coagulant and placed on wet ice, and were then processed to obtain plasma by centrifugation at approximately 5° C. (3000 g, 15 min) within 30 min after collection. An aliquot of 10 μL sample was protein precipitated with 150 μL IS, the mixture was vortex-mixed well and centrifuged at 13000 rpm for 10 min, 4° C. 30 μL supernatant was then mixed with 30 μL water, vortex-mixed well and centrifuged at 4° C. 2 μL sample was injected for LC-MS/MS analysis.
The collected CSF was transferred to polypropylene microcentrifuge tubes. CSF samples were added with an equal volume of plasma. An aliquot of 6 μL sample was protein precipitated with 90 μL IS, the mixture was vortex-mixed well and centrifuged at 13000 rpm for 10 min, 4° C. 30 μL supernatant was then mixed with 30 μL water, vortex-mixed well and centrifuged at 4° C. 2 μL sample was injected for LC-MS/MS analysis.
Test substance concentration in plasma and CSF versus time data were analyzed by non-compartmental approaches; AUC0-last in plasma and CSF were calculated with the log-linear trapezoidal rule. CSF/Plasma ratio was calculated as follows:
AUC0-last(CSF)/AUC0-last(plasma)

Data set [2] concerns the target T1, Tau K18 aggregates (Tau K18 fragment, amino acids 244 to 372 of human Tau441) (Homo sapiens, UniProt P10636).
T1 construct: encompassing amino acids 244 to 372 of the longest isoform (2N4R) of human Tau441; host or cells: bacteria
Description: Tau K18 disaggregation assay by ThT. It is filed as biochemical. As to conditions: 2 μM K18 aggregates, 160 to 0.04 μM compound, 30 min RT, ThT fluorescence. The protocol: Tau K18 Disaggregation Assay by ThT
The Tau K18 fragment, encompassing amino acids 244 to 372 of the longest isoform (2N4R) of human Tau441, was expressed in bacteria and purified or bought from SignalChem. For the K18 disaggregation assay by ThT, 35 μM of recombinant K18 in PBS were aggregated for 24 hours at 37° C. in presence of 50 μM of heparin (Sigma-Aldrich) and 10 mM of DTT (Sigma-Aldrich) under shaking at 750 RPM. Compounds were dissolved in anhydrous dimethyl sulfoxide (DMSO, Sigma-Aldrich) to reach a concentration of 10 mM. K18 aggregates and serial dilutions of compounds were mixed together in PBS (volume 50 μL) to a final concentration of 2 μM of K18 aggregates and from 160 to 0.04 μM of compounds. The mixture was incubated for 30 minutes at room temperature (RT), then 40 μL of this mixture were transferred into a black 384-well plate assay (Perkin-Elmer) and mixed with 10 μL of 100 μM ThT in 250 mM glycine (both from Sigma-Aldrich) in PBS. Fluorescence (relative fluorescence units; RFU) was measured in monoplicate or duplicate on a Tecan reader (excitation: 440 nm; emission: 485 nm). Percentage of K18 disaggregation was then calculated and half maximal effective concentration (EC50) was determined using GraphPad Prism version 5 (GraphPad Software) assuming a one-binding site fitting model.

Data set [3] deals with T2, full-length Tau (flTau, 2N4R) aggregates (Homo sapiens, UniProt P10636).
T2 construct: 35 μM of recombinant full-length (fl)Tau in PBS were aggregated; made in house; host or cells: bacteria
T2 sequence (P10636 1-441 isoform P10636-8): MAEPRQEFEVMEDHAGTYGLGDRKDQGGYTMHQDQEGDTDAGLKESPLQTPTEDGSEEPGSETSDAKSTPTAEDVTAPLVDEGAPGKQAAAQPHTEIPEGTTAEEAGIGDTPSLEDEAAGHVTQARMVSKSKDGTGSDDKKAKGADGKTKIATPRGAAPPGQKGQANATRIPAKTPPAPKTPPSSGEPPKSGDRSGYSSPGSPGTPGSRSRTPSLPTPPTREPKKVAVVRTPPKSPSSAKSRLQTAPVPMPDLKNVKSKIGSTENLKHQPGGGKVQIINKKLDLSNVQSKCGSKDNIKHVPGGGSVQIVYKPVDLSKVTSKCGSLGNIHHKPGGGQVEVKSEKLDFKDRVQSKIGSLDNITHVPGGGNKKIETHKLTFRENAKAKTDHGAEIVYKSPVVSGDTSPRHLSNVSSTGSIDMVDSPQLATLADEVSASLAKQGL
Description: Tau disaggregation assay by DLS (dynamic light scattering). It is filed as biochemical. As to conditions: 2 μM flTau aggregates, 20 μM compound, 60 min RT. The protocol: Tau disaggregation assay by DLS (dynamic light scattering)
The longest isoform of human Tau (2N4R; 441 amino acids) was expressed in bacteria. For the Tau disaggregation assay by DLS, 35 μM of recombinant full-length (fl)Tau in PBS were aggregated for 24 h at 37° C. in presence of 50 μM of heparin (Sigma-Aldrich) and 10 mM of DTT (Sigma-Aldrich) under shaking at 750 RPM. Morphomers™ were dissolved in DMSO (Sigma-Aldrich) to reach a concentration of 10 mM. flTau aggregates and compounds were mixed together in PBS (volume 80 μL) to a final concentration of 2 μM of flTau aggregates and 20 μM of Morphomers™. The mixture was incubated for 60 min at RT. Then […] of solution was transferred into a 40 μl cuvette (Malvern) and the size of flTau aggregates was measured with a Zetasizer Nano (Malvern) at an angle of 173° with 3 runs of 5 times 15 sec each. Number of events were taken into consideration to assess size of flTau aggregates. Percentage of disaggregation was then measured using the dynamic range between flTau monomers and flTau aggregates.

The mark [4] stands for this setting: 20 mg/kg, AUC0-last(CSF)/AUC0-last(plasma).

T1 sequence (P10636 561-689): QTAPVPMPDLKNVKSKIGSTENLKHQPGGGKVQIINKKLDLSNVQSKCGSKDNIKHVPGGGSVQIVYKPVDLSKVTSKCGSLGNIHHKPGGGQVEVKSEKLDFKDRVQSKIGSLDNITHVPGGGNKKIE

Usually EC50 stands for the concentration at which the effect is half-maximal. Lower therefore signals an effect from little substance. For the compound `Fc1ccc2[nH]c3c(c2c1)CN(c1ccc2oc(N4CCOCC4)nc2c1)CC3` [Comparative Example 1], in data set [1] (20 mg/kg), the “CSF AUC0-last” value is 121.03 ng·h/mL and the AUC(0-t) was 17400 ng·h/mL. Further, in data set [1] (setting [4]), the CSF/plasma AUC ratio came out at 0.007. Further, the EC50 in data set [2] was below 10 µM.

Turning to `Fc1ccc2c3c([nH]c2c1)CCN(c1ccc2oc(N4CCOCC4)nc2c1)C3` [Comparative Example 2], in data set [1] (20 mg/kg), the “CSF AUC0-last” value was determined as 56.70 ng·h/mL and the AUC(0-t) was determined as 17800 ng·h/mL. In addition, the CSF/plasma AUC ratio in data set [1] (setting [4]) came out at 0.003. In data set [2], this compound came in with an EC50 below 10 µM.

For `Fc1cccc2[nH]c3c(c12)CN(c1ccc2oc(N4CCOCC4)nc2c1)CC3` [Comparative Example 3], in data set [1] (10 mg/kg), the “CSF AUC0-last” value was 19.705 ng·h/mL and the AUC(0-t) is 4590 ng·h/mL. Also, the CSF/plasma AUC ratio in data set [1] (10 mg/kg, AUC0-last(CSF)/AUC0-last(plasma)) was determined as 0.004. This compound came in with an EC50 in data set [2] below 10 µM.

Consider `Fc1cccc2c3c([nH]c12)CCN(c1ccc2oc(N4CCOCC4)nc2c1)C3` [Comparative Example 4], for which, in data set [1] (20 mg/kg), the “CSF AUC0-last” value worked out at 66.5 ng·h/mL and the AUC(0-t) came to 14500 ng·h/mL. Moreover, the CSF/plasma AUC ratio in data set [1] (setting [4]) worked out at 0.005. In addition, the half-maximal effective concentration (EC50) in data set [2] is below 10 µM.

Turning to `c1ccc2c3c([nH]c2c1)CCN(c1ccc2oc(N4CCOCC4)nc2c1)C3` [Example 1], the “DLS % Percentage of disaggregation (flTau)” value in data set [3] is 25%. For the same compound, in data set [1] (setting [4]), the CSF/Plasma ratio result is “highest CSF/plasma ratio” and the CSF/plasma AUC ratio was 0.014. In addition, in data set [1] (20 mg/kg), the “CSF AUC0-last” value was 327.0 ng·h/mL and the AUC(0-t) is 23700 ng·h/mL. The same compound returned a concentration giving a half-maximal response (EC50) in data set [2] below 10 µM.

`c1ccc2c3c([nH]c2c1)CCN(c1ccc2oc(N4CCOCC4)nc2n1)C3` [Example 5] gave an EC50 in data set [2] below 10 µM.
